The text below walks through data of patent US12459914B2, “Compounds and compositions for the treatment of tumors” (FONDAZIONE ISTITUTO ITALIANO DI TECNOLOGIA, priority 2019, dated 2025).

What is called inhibition is the change of the read-out against control, counted positive when it falls. For orientation: EC50 means the concentration giving half of the maximal effect.

The subject of assay [1] is Homologous recombination (HR) in BxPC3 cells. Put plainly: Homologous recombination assay (HR). The note with it: Homo sapiens, BXPC-3, at 40 μM. The assay is classed as cell-based. As to the method: Homologous recombination (HR) was assessed by using a commercially available assay (Norgen). This assay is based on cell co-transfection with two plasmids that, upon cells entering, recombinate. The efficiency of HR can be assessed by real time PCR, using primer mixtures included in the assay kit. Different primer mixtures allow differentiation between the original plasmid backbones and their recombination product.
BxPC3 cells (2×10^3 per well) were seeded in a 24-well plate and allowed to adhere overnight. Co-transfection with the two plasmids was performed in Lipofectamine 2000 (Invitrogen) for 5 h, according to the manufacturer's instructions. During transfection cells were exposed at different doses of BRCA2-Rad51 disruptors, dissolved in RPMI without serum in the presence of 0.6% DMSO.
After washing with PBS, cells were harvested, and DNA was isolated using QIAamp® DNA Mini Kit (Qiagen). Sample concentration was measured using an ONDA Nano Genius photometer.
The thermal cycler (CFX96 ™ Real Time System, BioRad) was programmed as follows: initial denaturation 95° C. for 3 min then 95° C. for 15 sec., 61° C. for 30 sec., 72° C. for 1 min and repeated for 40 cycles. Melt curve analysis was done. Samples were run in triplicate, in 10 μl reaction volume containing 25 ng of template.
In each DNA sample from control and treated cultures, the ΔCt between the recombination product and the backbone plasmids was calculated. HR efficiency was evaluated from the 2^−ΔΔ^Ct value obtained by comparing treated vs control samples.

In assay [2] the test system is BxPC-3 cells. Put plainly: Cell viability assay (CellTiter Glo). The assay is classed as cell-based. Particulars: Homo sapiens, 72 h. For orientation: In ATP-based viability assays light output follows the ATP content of the culture.
Assay [3] deals with BxPC-3 cells. In words: Association with olaparib (given alone or in combination), cell viability / cytotoxicity. The format is cell-based. The note with it: olaparib 10 μM, 72 h. Here is the method: BxPC-3 cells were grown in RPMI 1640 containing 10% FBS, 100 U/ml penicillin/streptomycin, 2 mM glutamine. All media and supplements were from Sigma-Aldrich. Cultures were routinely tested for Mycoplasma contamination. Treatments (Olaparib and BRCA2-Rad51 disruptors) were administered in culture medium supplemented with 0.6% DMSO. The same amount of DMSO was added to the control, untreated cultures.
Cell viability was assessed by CellTiter Glo, Luminescent Cell Viability Assay. Briefly, BxPC-3 cells (1×10^4/well) were plated in white 96-well plates with clear bottom and treated for 72 h with olaparib (10 μM) or with the BRCA2-Rad51 disruptors, given alone or in combination. After treatments, the plate was allowed to equilibrate at room temperature for 30 min and the CellTiter-Glo reactive was directly added to each well. The plate was kept on a shaker for 2 min to induce cell lysis and its luminescence was measured by using a Fluoroskan Ascent FL reader (Labsystems) using manufacturer's instructions.
Cell death was assessed by applying the CellTox™ Green Cytotoxicity assay (Promega). Briefly, BxPC-3 (1×10^4/well) were plated in black 96-well plates with clear bottom and treated for 72 h with olaparib (10 μM) or with the BRCA2-Rad51 disruptors, given alone or in combination. At the end of treatment, the CellTox™ dye was added to cell cultures and the green fluorescence signal, which is produced by the binding interaction with dead cell DNA, was measured following the manufacturer's instructions. The fluorescence signal was detected using the EnSpire 2300 Multilabel Reader (Perkin Elmer); for each sample, the obtained signal was normalized on the number of viable cells, detected by the CellTiterGlo reagent.

Another assay concerns the target T1, BRC4/RAD51 interaction (Homo sapiens, UniProt Q06609).
T1 construct: purchased Creative Biomart (Rad51); Life Technologies (BRC4 peptide)
T1 sequence (Q06609 1-339): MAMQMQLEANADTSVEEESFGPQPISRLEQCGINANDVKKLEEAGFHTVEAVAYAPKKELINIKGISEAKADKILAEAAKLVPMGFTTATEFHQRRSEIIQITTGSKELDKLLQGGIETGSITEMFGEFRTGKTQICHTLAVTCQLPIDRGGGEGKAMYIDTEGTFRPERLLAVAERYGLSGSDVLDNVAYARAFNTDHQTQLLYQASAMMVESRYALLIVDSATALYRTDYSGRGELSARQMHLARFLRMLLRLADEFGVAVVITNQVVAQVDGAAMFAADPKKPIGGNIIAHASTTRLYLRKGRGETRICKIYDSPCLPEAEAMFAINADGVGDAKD
In words: Competitive ELISA assay, disruption of BRC4/RAD51 interaction. The format is binding. Particulars: human Rad51, biotinylated BRC4 peptide. In short, it runs like this: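 Competitive ELISA: plates coated with biotinylated BRC4 peptide, blocked with 1% BSA/PBST, then hybridized overnight with human Rad51 protein. Compounds tested in triplicate dose-response, […], 1% DMSO. Bound Rad51 detected colorimetrically with anti-Rad51 antibody, HRP secondary and TMB quenched with HCl.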

On to `CCn1cc2cc(-c3ccc(C4CC(c5c(-c6ccccc6)c6cc(Cl)ccc6[nH]c5=O)=NN4C(=O)CCC(=O)O)cc3)ccc2n1` (stereo not shown) [d.46, 4-[5-(6-chloro-2-oxo-4-phenyl-1H-quinolin-3-yl)-3-[4-(2-ethylindazol-5-yl)phenyl]-3,4-dihydropyrazol-2-yl]-4-oxo-butanoic acid], for which the inhibition at 40 µM in assay [1] came to 91.7%. The EC50 with BxPC-3 cells [2] came out at 44 µM; at BRC4/RAD51 interaction it was 17 µM. Also, the “Olaparib Assoc.” value in the assay with BxPC-3 cells [3] was “synergy”.
